Laboratory results from paper PMC6209510 (European journal of medicinal chemistry, 2017).

Experiments:
[1] = test system: P. falciparum D6; type: cell-based, Plasmodium falciparum; conditions: for SI (Selectivity Index: IC50 Vero Cells/IC50 Parasites), P. falciparum D6: Vero cells vs P. falciparum D6
[2] = test system: P. falciparum W2; type: cell-based; conditions: Plasmodium falciparum, W2, 48 h, read-out: P. falciparum W2 IC50
[3] = Cytotoxicity assay on Vero cells; type: cell-based, African green monkey; conditions: African green monkey, Vero cells (mammalian kidney fibroblasts)
[4] = test system: human foreskin fibroblast (HFF); test: Cytotoxicity on fibroblast; type: cell-based; conditions: no cytotoxicity at 10 μM
[5] = test system: Vero cells; test: Cytotoxicity assay on Vero cells; type: cell-based, African green monkey; conditions: 48 h; tested at a maximum concentration of 8 μM; NC = not cytotoxic

Row | Compound | IC50 at 48 h [3] | further results
1 | CCN(CC)CCCC(C)Nc1ccnc2cc(Cl)ccc12 (stereo not drawn) [CQ, Chloroquine, reference compound] |  | IC50 ([1]; Plasmodium falciparum, D6, 48 h, read-out: P. falciparum D6 IC50): 0.083 µM; IC50 [2]: 0.422 µM
2 | c1ccc(CNCCCNCc2ccccc2)cc1 [Compound 1, N1,N3-dibenzylpropane-1,3-diamine] | > 4.76 µg/mL | 
3 | COc1ccc(CNCCCNCc2ccc(OC)cc2)cc1 [Compound 7, N1,N3-bis(4-methoxybenzyl)propane-1,3-diamine] | > 4.76 µg/mL | 
4 | COc1ccc(CNCCCCNCc2ccc(OC)cc2)cc1 [Compound 8, N1,N4-bis(4-methoxybenzyl)butane-1,4-diamine] | > 4.76 µg/mL | 
5 | COc1ccc(CNCCCCCCNCc2ccc(OC)cc2)cc1 [Compound 9, N1,N6-bis(4-methoxybenzyl)hexane-1,6-diamine] | 8.32 µM | 
6 | COc1ccc(CNCCCCCCCCNCc2ccc(OC)cc2)cc1 [Compound 10, N1,N8-bis(4-methoxybenzyl)octane-1,8-diamine] | > 4.76 µg/mL | 
7 | COc1ccc(CNCCCCCCCCCCNCc2ccc(OC)cc2)cc1 [Compound 11, N1,N10-bis(4-methoxybenzyl)decane-1,10-diamine] | > 4.76 µg/mL | 
8 | COc1ccc(CNCCCCCCCCCCCCNCc2ccc(OC)cc2)cc1 [Compound 12, N1,N12-bis(4-methoxybenzyl)dodecane-1,12-diamine] | > 4.76 µg/mL | 
9 | COc1ccc(CNCCCNCc2ccc(OC)c(O)c2)cc1O [Compound 19, 5,5’-((propane-1,3-diylbis(azanediyl))bis(methylene))bis(2-methoxyphenol)] | > 4.76 µg/mL | 
10 | COc1ccc(CNCCCCNCc2ccc(OC)c(O)c2)cc1O [Compound 20, 5,5’-((butane-1,4-diylbis(azanediyl))bis(methylene))bis(2-methoxyphenol)] | > 4.76 µg/mL | 
11 | COc1ccc(CNCCCCCCNCc2ccc(OC)c(O)c2)cc1O [Compound 21, 5,5’-((hexane-1,6-diylbis(azanediyl))bis(methylene))bis(2-methoxyphenol)] | > 4.76 µg/mL | 
12 | COc1ccc(CNCCCCCCCCNCc2ccc(OC)c(O)c2)cc1O [Compound 22, 5,5’-((octane-1,8-diylbis(azanediyl))bis(methylene))bis(2-methoxyphenol)] | > 4.76 µg/mL | 
13 | COc1ccc(CNCCCCCCCCCCNCc2ccc(OC)c(O)c2)cc1O [Compound 23, 5,5’-((decane-1,10-diylbis(azanediyl))bis(methylene)) bis(2-methoxyphenol)] | > 4.76 µg/mL | 
14 | COc1ccc(CNCCCCCCCCCCCCNCc2ccc(OC)c(O)c2)cc1O [Compound 24, 5,5’-((dodecane-1,12-diylbis(azanediyl))bis(methylene))bis(2-methoxyphenol)] | > 4.76 µg/mL | 
15 | COc1cc(CNCCCNCc2ccc(OCc3ccccc3)c(OC)c2)ccc1OCc1ccccc1 [Compound 25, N1,N3-bis(4-(benzyloxy)-3-methoxybenzyl) propane-1,3-diamine] | 6.65 µM | cytotoxicity on fibroblast [4]: > 10 µM
16 | COc1cc(CNCCCCNCc2ccc(OCc3ccccc3)c(OC)c2)ccc1OCc1ccccc1 [Compound 26, N1,N4-bis(4-(benzyloxy)-3-methoxybenzyl) butane-1,4-diamine] | > 4.76 µg/mL | SI (Selectivity Index: IC50 Vero Cells/IC50 Parasites), P. falciparum D6 [1]: >27.4
17 | COc1cc(CNCCCCCCNCc2ccc(OCc3ccccc3)c(OC)c2)ccc1OCc1ccccc1 [Compound 27, N1,N6-bis(4-(benzyloxy)-3-methoxybenzyl) hexane-1,6-diamine] | > 4.76 µg/mL | SI (Selectivity Index: IC50 Vero Cells/IC50 Parasites), P. falciparum D6 [1]: >31.7
18 | COc1cc(CNCCCCCCCCCCNCc2ccc(OCc3ccccc3)c(OC)c2)ccc1OCc1ccccc1 [Compound 29, N1,N10-bis(4-(benzyloxy)-3-methoxybenzyl) decane-1,10-diamine] | > 4.76 µg/mL | 
19 | COc1cc(CNCCCCCCCCCCCCNCc2ccc(OCc3ccccc3)c(OC)c2)ccc1OCc1ccccc1 [Compound 30, N1,N12-bis(4-(benzyloxy)-3-methoxybenzyl) dodecane-1,12-diamine] | > 4.76 µg/mL | 
20 | N1,N1,N10,N10-tetrakis(4-methoxybenzyl) decane-1,10 diamine [Compound 40] |  | Cytotoxicity Vero cells IC50 [5]: NC (not cytotoxic at the maximum concentration tested (4.46 μg/mL))
